The text below walks through data of US10995260B2, “Methods for determining an optimal surfactant structure for oil recovery” (University of Wyoming, priority 2017, dated 2021).

The nature of the series: Dynamic interfacial tension of surfactant solution/crude oil (rising/captive bubble tensiometry). It is filed as physicochemical. As to conditions: time for IFT to reach half of its value between γo and γm; 0.1% wt surfactant, municipal water/crude oil, ambient conditions. On the procedure:
Interfacial tension tests were carried out in accordance with the invention. Dynamic IFT and contact angles were measured using rising/captive bubble tensiometry enhanced by image acquisition with a high-resolution Charged Coupled Device (CCD) digital camera and apochromatically-corrected lens. The apparatus includes a Hastelloy measurement cell, a Hastelloy dual-cylinder pulse-free Quizix pump (to provide constant flow rate and pressure), a temperature control module, a data acquisition computer, an oven, and an in-line density meter (Anton Paar DMA HPM) to measure the density of fluids at actual experimental conditions. The system tolerates reservoir conditions with pressures and temperatures up to 10,000 psi and 150° C., respectively (V. Mirchi, S. Saraji, L. Goual, M. Piri, Dynamic interfacial tension and wettability of shale in the presence of surfactants at reservoir conditions, Fuel, vol. 148, pp. 127-138, 2015).
For IFT measurements, after establishing ambient (e.g., 14.7 psi and 20° C.) or reservoir conditions (e.g., 6840 psi and 120° C.) in a cell saturated with brine, a bubble of crude oil was created inside the measurement cell through a needle (0.3-1.6 mm outside diameter). Images of oil bubbles were captured at 5-second intervals to measure dynamic interfacial tension. IFT values were obtained by fitting the drop profile to the Young-Laplace equation using Axisymetric Drop Shape Analysis (ADSA) software.
A series of dynamic IFT measurements with municipal water and crude oil were performed at ambient conditions to examine the surface activity of selected surfactants. FIGS. 5A-5F present dynamic IFT results of a homologous series of nonionic surfactant solutions with 0.1% wt concentration, which is above the critical micelle concentration (CMC) of all the surfactants studied. The size of the hydrophobic and hydrophilic parts of the surfactants were altered independently and their impact on oil/brine interfacial tension was investigated.
In addition, the dynamic IFT of certain surfactants was measured at reservoir conditions. In particular, the impact of elevated temperatures and pressures on the performance of these surfactants was evaluated. IFT values of crude oil and surfactant solutions were measured at 6840 psi and 120° C.
As shown by Equation 1, three typical regions of dynamic IFT reduction exist: (I) induction region, (II) rapid fall region, and (III) mesoequilibrium region (X. Y. Hua, M. J. Rosen, Dynamic surface tension of aqueous surfactant solutions: I. Basic parameters, Journal of Colloid and Interface Science, vol. 124, no. 2, pp. 652-659, 1988). log(γ0−γt)−log(γt−γm)=n log t−n log t* (1)
In Equation 1, γt is the IFT of surfactant solution at time t, γm is the mesoequilibrium interfacial tension (when γt is almost stabilized), γo is the IFT in the absence of surfactant, and t* is the required time for IFT to reach half of its value between γo and γm. The value of n is a constant number related to the structure of surfactants and correlates to the difference between surfactants' adsorption and desorption. Increasing nonionic surfactants' polyoxyethylene chain length reduces the value of n (T. Gao, M. J. Rosen, Dynamic surface tension of aqueous surfactant solutions: 7. physical significance of dynamic parameters and the induction period, Journal of Colloid and Interface Science, vol. 172, no. 1, pp. 242-248, 1995).

For the substance “CH3(CH2)11-13(OC2H4)8.2OH [CH2 11-14, EO 8.2]”, the “t*” value was determined as 7.83 min.
Next, “CH3(CH2)8-10(OC2H4)2.5OH [CH2 8-10, EO 2.5]”: 16.5 min.
Next, “CH3(CH2)8-10(OC2H4)8.3OH [CH2 8-10, EO 8]”: 11.6 min; “CH3(CH2)11-14(OC2H4)7.25OH [CH2 11-14, EO 7.25]”: 9.3 min.
Turning to “CH3(CH2)8-10(OC2H4)6-6.5OH [CH2 8-10, EO 6]”, the “t*” value came to 12.3 min.
Then “CH3(CH2)11-14(OC2H4)3OH [CH2 11-14, EO 3]”, with 23 min.
